Values of other authors as cited in US6601275B2, “Method and composition for embalming” (United Biotechnologies, L.L.C., priority 2000, dated 2003).

## C=O [formaldehyde]
airborne
  airborne concentration causing irritation of the eyes nose and throat: above 0.1 ppm
  airborne concentration immediately dangerous to life and health: 100 ppm
human
  carcinogenicity: potential human carcinogen
